Activity calls are given as the source filed them.

This note sets out measurements from ChEMBL document CHEMBL1201862, “PubChem BioAssay data set” (2004).

Data set [1] has as its target Cytochrome P450 2C19 (Homo sapiens, UniProt P33261). Put plainly: Cytochrome panel assay with activity outcomes. Panel member name: p450-cyp2c19 Compounds with AC50 equal or less than 10 uM are considered active. The data set is classed as functional.
A short description of data set [2]: cytotoxicity toward NIH3T3 fibroblasts, dose response, counter-screen, cell-based, ATP luminescence, mouse fibroblasts (AID 2010).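 Note: cells exposed to compound for about 90 hours before reading.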 The data set is classed as functional. For orientation: Counterscreens check selectivity or assay interference.
A short description of data set [3]: inhibitors of intracellular T. cruzi replication, confirmation, NIH3T3 host cells, beta-gal luminescence (AID 2044).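 Note: intracellular parasites grown in NIH/3T3 mouse fibroblasts as host cells; luminescent beta-galactosidase reporter signal from transgenic T. cruzi replicating inside host cells; inhibitors lower the luminescence signal.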 The data set is classed as functional, cell-based.
In data set [4] the target is T1, Cytochrome P450 1A2 (Homo sapiens, UniProt P05177).
T1 sequence (P05177 whole entry): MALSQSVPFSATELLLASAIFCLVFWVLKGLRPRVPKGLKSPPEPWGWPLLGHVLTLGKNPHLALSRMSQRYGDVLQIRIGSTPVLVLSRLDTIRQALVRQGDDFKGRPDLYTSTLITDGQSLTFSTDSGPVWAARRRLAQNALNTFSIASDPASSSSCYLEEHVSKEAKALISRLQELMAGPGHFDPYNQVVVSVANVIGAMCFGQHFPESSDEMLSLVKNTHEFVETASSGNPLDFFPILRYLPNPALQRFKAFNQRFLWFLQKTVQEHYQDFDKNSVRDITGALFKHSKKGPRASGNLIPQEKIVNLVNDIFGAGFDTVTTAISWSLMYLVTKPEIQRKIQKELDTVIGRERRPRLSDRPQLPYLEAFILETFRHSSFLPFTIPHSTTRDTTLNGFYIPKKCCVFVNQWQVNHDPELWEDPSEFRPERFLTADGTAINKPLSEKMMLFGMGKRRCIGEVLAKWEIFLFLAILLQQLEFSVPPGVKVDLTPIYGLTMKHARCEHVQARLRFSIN

Data set [5] deals with Cytochrome P450 3A4 (Homo sapiens, UniProt P08684).
Sequence of Cytochrome P450 3A4 (P08684 whole entry): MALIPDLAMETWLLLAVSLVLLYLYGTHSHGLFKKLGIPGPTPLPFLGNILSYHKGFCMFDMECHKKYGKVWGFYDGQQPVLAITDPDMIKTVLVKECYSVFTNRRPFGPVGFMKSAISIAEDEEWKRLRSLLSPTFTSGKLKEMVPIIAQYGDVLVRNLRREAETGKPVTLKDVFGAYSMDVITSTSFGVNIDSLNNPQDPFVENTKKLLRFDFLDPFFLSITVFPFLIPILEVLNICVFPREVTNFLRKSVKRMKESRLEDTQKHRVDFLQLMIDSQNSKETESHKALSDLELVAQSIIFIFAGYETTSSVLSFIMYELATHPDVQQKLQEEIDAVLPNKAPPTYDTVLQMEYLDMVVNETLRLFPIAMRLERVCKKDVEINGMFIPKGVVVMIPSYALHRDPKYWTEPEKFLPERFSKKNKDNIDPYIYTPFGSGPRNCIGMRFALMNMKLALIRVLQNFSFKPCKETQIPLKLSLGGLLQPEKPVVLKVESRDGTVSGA
Data set [6] is described as follows: Luminescence Cell-Based Dose Retest to Confirm Inhibitors of Cancer Stem Cells. [Related pubchem assays (depositor defined):AID2717, AID2721]. The data set is classed as functional. The settings on record: Homo sapiens.
In data set [7] the test system is Streptococcus. Put plainly: Group A Streptococcus viability loss, dose response, counter-screen for streptokinase expression inhibitor project, luminescence, BacTiterGlo (AID 1915).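 Note: potency for reduction of bacterial viability or growth.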 In kind it is functional, organism-based.
The subject of data set [8] is Streptococcus sp. 'group A'. Put plainly: growth inhibition of control SK(-) GAS strain, dose response, counter-screen for streptokinase expression inhibitor project, luminescence, kanamycin, BacTiterGlo, confirmation (AID 1900). The data set is classed as functional, organism-based.

Sequence of Cytochrome P450 2C19 (P33261 whole entry): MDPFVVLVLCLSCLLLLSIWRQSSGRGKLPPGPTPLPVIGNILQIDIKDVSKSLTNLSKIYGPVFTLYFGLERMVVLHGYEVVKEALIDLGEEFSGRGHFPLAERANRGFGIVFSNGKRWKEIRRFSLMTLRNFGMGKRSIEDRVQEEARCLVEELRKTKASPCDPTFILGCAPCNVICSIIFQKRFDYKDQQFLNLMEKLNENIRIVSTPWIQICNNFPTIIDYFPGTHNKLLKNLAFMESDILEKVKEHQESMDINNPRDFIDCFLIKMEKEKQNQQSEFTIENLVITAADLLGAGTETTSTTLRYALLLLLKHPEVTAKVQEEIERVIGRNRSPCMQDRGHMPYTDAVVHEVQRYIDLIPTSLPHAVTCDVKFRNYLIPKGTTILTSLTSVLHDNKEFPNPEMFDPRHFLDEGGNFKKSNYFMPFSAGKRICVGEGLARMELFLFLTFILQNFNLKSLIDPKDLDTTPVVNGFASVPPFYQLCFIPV

As usually defined, the AC50 is the midpoint of the concentration-response curve, whichever way the signal moves. `Cc1nc2cnc(Oc3cccc(Cl)c3)nc2n(CCc2ccccc2)c1=O`: the AC50 in data set [1] (read-out: AC50) was 7.94 µM (inconclusive).
As usually defined, the EC50 is the concentration needed to bring the measured effect to its halfway point. For the molecule `CN1CCC(N(C)C(=O)c2ccccc2Nc2ccc(SC(F)F)cc2)CC1`, the EC50 in data set [2] is > 60 µM (not active); in data set [3], 0.384 µM (active).
The like results for `CN1CCN(CC(O)COCCOc2ccc(Br)cc2)CC1` (stereo not drawn) were, in that order, > 60 µM (not active) and 0.542 µM (active).
Consider `C[C@@H]1/C=C\CC(=O)OC[C@H](C)C(=O)N[C@@H](C)C(=O)OC1`, for which, in data set [1], the AC50 result is reported as “inconclusive”.
With `COCC(=O)Oc1c(S(=O)(=O)c2ccc(C)cc2)c(C)nn1-c1ccccc1`, the half-maximal activity concentration (AC50) in data set [4] was 6.31 µM (inconclusive); in data set [1] (read-out: AC50), 28.2 µM (inconclusive).
With `COc1ccccc1/C=C/C=N/N1CCN(Cc2cccc3ccccc23)CC1`, the AC50 in data set [5] is 12.6 µM (inconclusive).
Consider `Cc1nc(NC(=O)c2ccccc2)sc1-c1csc(NCCc2ccccc2)n1`, for which the EC50 is > 60 µM (not active) in data set [2] and 2.25 µM (active) in data set [3].
In the case of `O=C(N/N=C/c1cc([N+](=O)[O-])ccc1O)c1c[nH]c2ccccc12`, the AC50 in data set [6] is 6.85 µM (active).
As for `CCn1c(SCC(=O)Nc2sc3c(c2C#N)CCC(C(C)(C)C)C3)nnc1-c1ccco1` (stereo not drawn), the AC50 in data set [1] (read-out: AC50) is 20 µM (inconclusive).
For `Cn1cccc1C(=O)N1CCC[C@@]2(CCN(c3ccccn3)C2)C1`, the AC50 in data set [4] was 31.6 µM (inconclusive); in data set [5], 12.6 µM (inconclusive); in data set [1] (read-out: AC50), 39.8 µM (inconclusive).
In the case of `CC(=O)Nc1ccc(S(=O)(=O)NC(CC(=O)NCCCN2CCOCC2)C(C)C)cc1` (stereo not drawn), the AC50 in data set [5] is 31.6 µM (inconclusive).
For `C[C@@H]1c2ccccc2CN1CC1=NCCN1`, the AC50 in data set [4] and in data set [5] was 31.6 µM (inconclusive) each time.
In the case of `Cc1nc2c(-c3ccccc3)cnn2c(O)c1Cc1ccccc1`, the figures for the EC50 in data set [2] and in data set [3] were 14.6 µM (active) and 2.22 µM (active), respectively.
For `COc1cccc(CC2(CO)CCCN(Cc3ccc(-c4ccco4)cc3)C2)c1` (stereo not drawn), in that order: > 60 µM (not active) and 0.621 µM (active).
For `Cc1nn(-c2ccc(F)cc2)c2nc(N)c(C#N)c(-c3ccc(O)c(O)c3)c12`, in that order: 15.6 µM (active) and 2.04 µM (active).
Take `CC(=O)NCCNc1ncncc1-c1ccc(N(C)C)cc1`: in data set [1] (read-out: AC50), the AC50 was 20 µM (inconclusive).
For `COc1ccc(CCn2c(SCCN3CCCCC3)nc3ccccc3c2=O)cc1OC`, the half-maximal effective concentration (EC50) in data set [2] is > 60 µM (not active); in data set [3], 0.936 µM (active).
In the case of `O[C@@H](c1cc(-c2ccc(Cl)cc2)nc2ccccc12)[C@@H]1CCCCN1`, the AC50 in data set [1] (read-out: AC50) is 6.31 µM (inconclusive).
For `COCC(=O)N1CCC2(CCN(Cc3ccncc3)CC2)CC1`, the AC50 in data set [5] is 15.8 µM (inconclusive).
With `CC1CCCC(NC(=O)C2CCN(S(=O)(=O)N3CCOCC3)CC2)C1C` (stereo not drawn), the AC50 in data set [5] was 11.2 µM (inconclusive).
Turning to `COc1ccc(N=C(S)NC(NC(=O)c2cccc3ccccc23)C(Cl)(Cl)Cl)c([N+](=O)[O-])c1` (stereo not drawn), the EC50 in data set [2] is > 30 µM (not active); in data set [3], 2.25 µM (active).
As to `c1csc(CNCCCN2CCOCC2)c1`, the half-maximal activity concentration (AC50) in data set [1] (read-out: AC50) is 14.1 µM (inconclusive).
Turning to `CCOC(=O)Nc1ccc2c(c1)N(C(=O)CCN1CCOCC1)c1ccccc1S2` [MORICIZINE], the concentration giving a half-maximal response (EC50) is > 60 µM (not active) in data set [2] and 5.85 µM (active) in data set [3].
For `CN1CCN(C(=O)COc2ccc(S(=O)(=O)Nc3ccc(F)cc3)cc2)CC1`, in that order: > 60 µM (not active) and 0.142 µM (active).
Regarding `O=C(NC1CCCN(CCc2ccccc2)C1)C1CCCC1` (stereo not drawn), the EC50 was > 60 µM (not active) in data set [2] and 1.3 µM (active) in data set [3].
The like results for `CC(C)(C)C1CCC(OCC(O)CN2CCN(Cc3ccccc3)CC2)CC1` (stereo not drawn) were, in that order, > 60 µM (not active) and 1.15 µM (active).
The like results for `CC(=O)Nc1ccc(/C(C)=N/Nc2nc(Nc3ccccc3)nc(N3CCOCC3)n2)cc1` were, in that order, 50.7 µM (active) and 0.345 µM (active).
As to `O=C(CCn1cnc(-c2ccccc2)c1-c1ccccc1)N/N=C/c1ccccc1O`, the results for the EC50 in data set [7] and in data set [8] were 2.13 µM (active) and 0.47 µM (active), respectively.
Regarding `Cn1c(=O)c2c(nc(C(=N)SCC(=O)O)n2C)n(C)c1=O`, in data set [1], the half-maximal activity concentration (AC50) entry is given as “inconclusive”.
With `N#C/C(=C(/O)c1ccc2c(c1)OCO2)c1nc2cc(C(F)(F)F)ccc2s1`, the concentration for a half-maximal effect (EC50) in data set [7] is 4.33 µM (active); in data set [8] it was 2.89 µM (active).
`Clc1ccccc1-c1nc(NC2CCNCC2)c2ccccc2n1`: the AC50 in data set [4] was 20 µM (inconclusive).
The same measure, in the same setting: for `N=C(C[C@@H](O)COc1ccccc1-c1ccccc1)N1CCCCC1` the value was 39.8 µM (inconclusive).
Take `CCN(CC)S(=O)(=O)c1ccc2c(c1)c(=O)c(C(=O)NCCN(C)CCc1ccccc1)cn2C`: the results for the EC50 in data set [2] and in data set [3] were > 60 µM (not active) and 0.991 µM (active), respectively.
`Cc1nnc(-c2cnn(-c3ccccc3)c2N)n1Cc1ccc(F)cc1`: the AC50 in data set [5] is 25.1 µM (inconclusive).
Turning to `CN(C)C(=N)NCCC[C@H](N)C(=O)O`, the AC50 entry in data set [1] is given as “inconclusive”.
For `CN1CCN(Cc2nc3cccc4c3c([n+]2[O-])-c2ccccc2-4)CC1`, the AC50 in data set [5] was 3.98 µM (inconclusive).
As to `O=C(Nc1cc(Sc2nc3ccccc3s2)cc([N+](=O)[O-])c1)c1ccccc1`, the figures for the EC50 in data set [2] and in data set [3] were > 60 µM (not active) and 1.42 µM (active), respectively.
As to `CC(C)(C)c1ccc(C(=O)Nc2ccc(N3CCOCC3)cc2)cc1`, the half-maximal activity concentration (AC50) in data set [6] is 4.04 µM (active).
In the case of `Cn1cccc1C(=O)N1CCC2(CCCN(Cc3ccncc3)C2)CC1`, the results for the AC50 in data set [4], in data set [5] and in data set [1] (read-out: AC50) were 15.8 µM (inconclusive), 3.98 µM (inconclusive) and 15.8 µM (inconclusive), respectively.
In the case of `O=c1c(-c2cccc(Cl)c2)nc2cncnc2n1Cc1ccc(F)cc1`, in data set [5], the AC50 is 15.8 µM (inconclusive).
As for `COc1ccc(Cl)cc1C(=O)Nn1cnc2ccccc2c1=O`, the AC50 in data set [5] is 25.1 µM (inconclusive); in data set [1] (read-out: AC50), 11.2 µM (inconclusive).
On to `O[C@@H]1[C@@H](OCc2ccccc2)OC[C@H](O)[C@@H]1O`, for which the AC50 entry in data set [1] is listed as “inconclusive”.
For `O[C@@H]1[C@@H]2c3cc4c(cc3CN3CCC(=C[C@@H]1O)[C@H]23)OCO4`, the AC50 in data set [4] was 15.8 µM (inconclusive).
Take `Cc1cc(C)cc(Oc2ncnc3c2ncn3Cc2c(Cl)cccc2Cl)c1`: the EC50 was > 60 µM (not active) in data set [2] and 1.95 µM (active) in data set [3].
Take `CN(Cc1ccco1)c1ccnc(-c2cccc(NS(C)(=O)=O)c2)n1`: the AC50 in data set [1] (read-out: AC50) is 25.1 µM (inconclusive).
On to `CSc1nc(C)cc(OCC(=O)N/N=C/c2ccccc2O)n1`, for which the AC50 in data set [6] was 3.38 µM (active).
Consider `N#Cc1cccc(NC(=O)N2CC3(CCN(C(=O)c4ccco4)CC3)C2)c1`, for which the AC50 in data set [4] is 25.1 µM (inconclusive); in data set [1] (read-out: AC50) it was 2 µM (inconclusive).
As for `CC(C)[C@@H]1CN[C@H](C(=O)O)[C@@H]1CC(=O)O`, the AC50 in data set [4] is 39.8 µM (inconclusive).
For `CC(C)CC(=O)O/N=C1\C(=O)N(Cc2ccc(Cl)cc2)c2ccc([N+](=O)[O-])cc21`, in data set [3], the EC50 is 4.6 µM (active).
On to `O=C(O)C(Cc1ccccc1)Cc1ccccc1`, for which the AC50 in data set [4] is 0.00501 µM (inconclusive).
Same read-out and setting: for `C=CCN1C[C@H](C)N([C@H](c2ccc(C(=O)N(CC)CC)cc2)c2cccc(O)c2)C[C@H]1C` the value was 39.8 µM (inconclusive).
Take `NC(=O)CC(NC(=O)c1ccc(Br)cc1)c1ccc(NCc2ccc(F)cc2)c([N+](=O)[O-])c1` (stereo not drawn): the AC50 in data set [6] is 3.96 µM (active).
Consider `O=C(c1ccc2c(c1)OCO2)C1CCCN(C2CCN(CCc3ccccc3)CC2)C1` (stereo not drawn), for which the half-maximal effective concentration (EC50) in data set [2] is > 60 µM (not active); in data set [3], 1.72 µM (active).
Take `COc1ccc(/C=N\N=C(N)N)cc1`: the EC50 in data set [2] was > 60 µM (not active); in data set [3], 0.854 µM (active).
On to `COc1ccc(Oc2nc3ccccc3nc2C(F)(F)F)cc1`, for which the AC50 in data set [1] (read-out: AC50) was 3.16 µM (inconclusive).
Same read-out and setting: then `Cc1cccc(CNc2ncnc3ccc(-c4cccnc4)cc23)c1`, with 39.8 µM (inconclusive).
In the case of `CCCOc1ccc(/C=C/C(=O)Nc2ccc([N+](=O)[O-])cc2C)cc1OC`, the AC50 in data set [5] is 2.82 µM (inconclusive).
Consider `O=S(=O)(NCc1cn2ccsc2n1)c1ccc(Oc2ccccc2)cc1`, for which the AC50 in data set [4] was 5.01 µM (inconclusive).
Turning to `Cc1ccc(-n2cc(CN(C)Cc3ncc[nH]3)c(-c3cccc(C)c3)n2)cc1`, the EC50 in data set [2] is > 60 µM (not active); in data set [3], 1.16 µM (active).
